From PubChem BioAssay (NCI)
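Following 48 hours of exposure in 96-well plates, responses at five concentrations were used to interpolate endpoints linearly. Here, GI50 denotes the concentration required for 50% inhibition of growth. TGI denotes the concentration required for complete inhibition of growth.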 Where a SMILES comes first, the peptide text is derived from it. [ ]: non-standard residue; d: D form. The star is where a group is joined. ξ: configuration not given here. Propanoyl(3-(4-MeO-Ph)) = COc1ccc(CCC(=O)*)cc1; Thr(3ξ) = CC(O)[C@H](N)C(=O)O; dNMeL = CN[C@H](CC(C)C)C(=O)O; OBn = c1ccc(CO*)cc1; ξLac = CC(O)C(=O)O

Key:
Test in all cases: NCI-60 cell line screen, 48 h
LOX IMVI melanoma = tested on: LOX IMVI melanoma
T-47D breast = tested on: T-47D breast
MOLT-4 leukemia = tested on: MOLT-4 leukemia
NCI-H460 lung = tested on: NCI-H460 lung
CCRF-CEM leukemia = tested on: CCRF-CEM leukemia
SW-620 colon = tested on: SW-620 colon
UACC-62 melanoma = tested on: UACC-62 melanoma
MALME-3M melanoma = tested on: MALME-3M melanoma
OVCAR-5 ovarian = tested on: OVCAR-5 ovarian
NCI-H226 lung = tested on: NCI-H226 lung

SMILES	TGI (LOX IMVI melanoma)	TGI (T-47D breast)	TGI (MOLT-4 leukemia)	TGI (NCI-H460 lung)	TGI (CCRF-CEM leukemia)	TGI (SW-620 colon)	TGI (UACC-62 melanoma)	TGI (MALME-3M melanoma)	TGI (OVCAR-5 ovarian)	TGI (NCI-H226 lung)	GI50 (LOX IMVI melanoma)	GI50 (T-47D breast)	GI50 (MOLT-4 leukemia)	GI50 (NCI-H460 lung)	GI50 (CCRF-CEM leukemia)	GI50 (SW-620 colon)	GI50 (UACC-62 melanoma)	GI50 (MALME-3M melanoma)	GI50 (OVCAR-5 ovarian)	GI50 (NCI-H226 lung)
CC(=O)c1c(-c2ccccc2)c(-c2ccc(OCCN(C)C)cc2)n2ccccc12	29.1 µM	37.8 µM	48 µM	26 µM	61.1 µM	32 µM	30.7 µM	24.4 µM	> 100 µM	38.3 µM	–	–	–	–	–	–	–	–	–	–
Cc1ccc(S(=O)(=O)/N=C(\[O-])C2=C(c3ccccc3)NN(C)c3nc4cccc[n+]4nc32)cc1	> 100 µM	> 100 µM	> 100 µM	> 100 µM	> 100 µM	> 100 µM	> 100 µM	> 100 µM	> 100 µM	> 100 µM	–	–	–	–	–	–	–	–	–	–
CCCC#CC(O)(C(=O)OC1CCN(C)CC1)C1CCCCC1 (stereo not given)	> 100 µM	> 100 µM	> 100 µM	> 100 µM	> 100 µM	> 100 µM	> 100 µM	> 100 µM	> 100 µM	> 100 µM	–	–	–	–	–	–	–	–	–	–
NC12CC3CC4C1CC1CC2C(C3)C4(N)C1	> 100 µM	> 100 µM	> 100 µM	> 100 µM	> 100 µM	> 100 µM	> 100 µM	> 100 µM	> 100 µM	> 100 µM	–	–	–	–	–	–	–	–	–	–
CN(C)CCNC1=CC(=O)c2c(O)ccc(O)c2C1=O	12.7 µM	25.5 µM	> 100 µM	14.6 µM	11.3 µM	10.1 µM	5.63 µM	2.62 µM	27.5 µM	39.8 µM	–	–	–	–	–	–	–	–	–	–
CC12CC3(O)OC(O1)C1(COC(=O)c4ccccc4)C3CC21OC1OC(CO)C(O)C(O)C1O (stereo not given)	> 100 µM	> 100 µM	> 100 µM	> 100 µM	> 100 µM	> 100 µM	> 100 µM	> 100 µM	> 100 µM	> 100 µM	–	–	–	–	–	–	–	–	–	–
O=c1[nH]c2ccc(CC(=S)N3CCN(c4ccccc4)CC3)cc2o1	> 100 µM	> 100 µM	> 100 µM	> 100 µM	> 100 µM	> 100 µM	> 100 µM	> 100 µM	> 100 µM	> 100 µM	–	–	–	–	–	–	–	–	–	–
O=C(/C=C\Nc1ccccc1O)C(Cl)(Cl)Cl	> 100 µM	96.4 µM	> 100 µM	> 100 µM	> 100 µM	> 100 µM	> 100 µM	> 100 µM	> 100 µM	> 100 µM	–	–	–	–	–	–	–	–	–	–
COc1cc(C2SCC(=O)N2c2ccc(Cl)cc2)cc(I)c1O (stereo not given)	> 100 µM	> 100 µM	> 100 µM	> 100 µM	> 100 µM	> 100 µM	> 28.5 µM	> 100 µM	> 100 µM	> 100 µM	–	–	–	–	–	–	–	–	–	–
COc1ccccc1N=N/C(=N/NC(=O)c1ccc(C)cc1)c1ccc(N(CCC#N)CCC#N)cc1OC	> 100 µM	96 µM	49.6 µM	> 100 µM	40.9 µM	> 100 µM	> 100 µM	81.9 µM	> 100 µM	> 100 µM	–	–	–	–	–	–	–	–	–	–
O=C(/C=C/c1cccs1)c1cccc(C(=O)/C=C/c2cccs2)n1	7.34 µM	> 100 µM	6.54 µM	> 100 µM	8.51 µM	15.6 µM	> 100 µM	> 100 µM	> 100 µM	> 100 µM	–	–	–	–	–	–	–	–	–	–
CC1=C(C(=O)Nc2ccccc2)C(c2ccc(C)o2)C(C#N)=C(SCc2ccccc2)N1 (stereo not given)	> 100 µM	> 100 µM	> 100 µM	> 100 µM	> 100 µM	> 100 µM	> 100 µM	> 100 µM	> 100 µM	> 100 µM	–	–	–	–	–	–	–	–	–	–
Cc1ccc2cccc3c2c1CC1(C3=O)S(=O)(=O)OCCOS1(=O)=O	> 100 µM	> 100 µM	> 100 µM	> 100 µM	> 100 µM	> 100 µM	> 100 µM	> 100 µM	> 100 µM	> 100 µM	–	–	–	–	–	–	–	–	–	–
COc1ccc(CCC(=O)OC(C)[C@H](NC(=O)[C@@H](CC(C)C)N(C)C(=O)[C@@H]2CCCN2C(=O)C(C)O)C(=O)OCc2ccccc2)cc1 (stereo not given in full) (H-[ξLac]P[dNMeL][Thr(3ξ)](Propanoyl(3-(4-MeO-Ph)))-OBn)	41.4 µM	74.5 µM	63 µM	> 100 µM	68.9 µM	> 100 µM	37.9 µM	45.4 µM	> 100 µM	98.3 µM	–	–	–	–	–	–	–	–	–	–
OCCN=C1c2ccccc2C2C(c3ccccc31)C1c3ccccc3C(=NCCO)c3ccccc3C21 (stereo not given)	52.6 µM	97 µM	27.6 µM	58.3 µM	35.9 µM	> 100 µM	37.5 µM	75.7 µM	60.7 µM	17.8 µM	–	–	–	–	–	–	–	–	–	–
Clc1ccc2c(NCCNc3ccnc4cc(Cl)ccc34)ccnc2c1	34.1 µM	43.8 µM	35.3 µM	27 µM	46.2 µM	31.3 µM	33.1 µM	> 100 µM	33.3 µM	62.5 µM	–	–	–	–	–	–	–	–	–	–
CC(C)CC1[C@@H](OCc2ccccc2)COS(=O)(=O)N1Cc1ccccc1 (stereo not given in full)	> 100 µM	> 100 µM	> 100 µM	> 100 µM	> 100 µM	> 100 µM	> 100 µM	> 100 µM	> 100 µM	> 100 µM	–	–	–	–	–	–	–	–	–	–

SMILES	TGI (LOX IMVI melanoma)	TGI (T-47D breast)	TGI (MOLT-4 leukemia)	TGI (NCI-H460 lung)	TGI (CCRF-CEM leukemia)	TGI (SW-620 colon)	TGI (UACC-62 melanoma)	TGI (MALME-3M melanoma)	TGI (OVCAR-5 ovarian)	TGI (NCI-H226 lung)	GI50 (LOX IMVI melanoma)	GI50 (T-47D breast)	GI50 (MOLT-4 leukemia)	GI50 (NCI-H460 lung)	GI50 (CCRF-CEM leukemia)	GI50 (SW-620 colon)	GI50 (UACC-62 melanoma)	GI50 (MALME-3M melanoma)	GI50 (OVCAR-5 ovarian)	GI50 (NCI-H226 lung)
O=C1OC(C2OC(=O)c3cc(O)c(O)c(O)c3-c3c(O)c(O)c4oc(=O)c5c(c(O)c(O)c6oc(=O)c3c4c65)-c3c(cc(O)c(O)c3O)C(=O)OCC2O)C2OC(=O)c3c(c(O)c(O)c(O)c3[C@H]2O)-c2c1cc(O)c(O)c2O (stereo not given in full)	35.5 µM	80.1 µM	65.3 µM	> 100 µM	37.6 µM	48.9 µM	56.5 µM	> 100 µM	47.3 µM	44.2 µM	–	–	–	–	–	–	–	–	–	–
O=C(N/N=C\c1ccc([N+](=O)[O-])cc1)Nc1cccc2ccccc12	> 62.2 µM	> 47.6 µM	> 100 µM	> 51.9 µM	> 100 µM	> 100 µM	> 49.8 µM	> 82.5 µM	> 100 µM	61 µM	–	–	–	–	–	–	–	–	–	–
CC1(C)C(=O)C2(OS(=O)(=O)C(F)(F)F)CCC1C2 (stereo not given)	> 100 µM	> 100 µM	> 100 µM	> 100 µM	> 100 µM	> 100 µM	> 100 µM	> 100 µM	> 100 µM	> 100 µM	–	–	–	–	–	–	–	–	–	–
NCCCc1c(-c2ccccc2)nc(N)[nH]c1=O	> 100 µM	> 100 µM	> 100 µM	> 100 µM	> 100 µM	> 100 µM	> 100 µM	> 100 µM	> 100 µM	> 100 µM	–	–	–	–	–	–	–	–	–	–
COc1ccc(CCCC(=O)O)c(C)c1	> 100 µM	> 100 µM	> 100 µM	> 100 µM	> 100 µM	> 100 µM	> 100 µM	> 100 µM	> 100 µM	91.1 µM	–	–	–	–	–	–	–	–	–	–
CC(=O)O[C@H]1C(=O)[C@@]2(C)[C@H]([C@H](OC(=O)c3ccccc3)[C@]3(O)C[C@H](OC(=O)[C@H](O)[C@@H](NC(=O)CC(C)C)c4ccccc4)C(C)=C1C3(C)C)[C@]1(OC(C)=O)CO[C@@H]1C[C@@H]2O	> 10 µM	> 10 µM	> 10 µM	> 10 µM	> 10 µM	> 10 µM	> 10 µM	> 10 µM	> 10 µM	> 10 µM	–	–	–	–	–	–	–	–	–	–
Oc1ccc2ccccc2c1N=Nc1ccccn1	12.4 µM	> 28.4 µM	12.5 µM	5.49 µM	22.8 µM	> 100 µM	8.22 µM	10.6 µM	> 100 µM	> 87.9 µM	356 nM	681 nM	296 nM	532 nM	312 nM	652 nM	1350 nM	2070 nM	4 µM	1940 nM
CCOC(=O)COc1c(OC)cc(C2C3=C(COC3=O)Oc3cc4c(cc32)OCO4)cc1OC (stereo not given)	> 100 µM	17.7 µM	41.8 µM	49.4 µM	0.965 µM	> 65.9 µM	> 31.6 µM	> 100 µM	> 100 µM	> 100 µM	–	–	–	–	–	–	–	–	–	–
CC1(C)N=C(/C=N/O)C(C)(C)N1O	> 100 µM	> 100 µM	> 100 µM	> 100 µM	> 100 µM	> 100 µM	> 100 µM	> 100 µM	> 100 µM	> 100 µM	–	–	–	–	–	–	–	–	–	–
CSc1nc(O)c(/C=C2\C=Nc3ccccc32)[nH]1	> 100 µM	> 100 µM	> 100 µM	> 100 µM	> 100 µM	> 100 µM	> 100 µM	> 100 µM	> 100 µM	> 100 µM	–	–	–	–	–	–	–	–	–	–
COC1(OC)C2(Cl)C(Cl)=C(Cl)C1(Cl)C1COCC12 (stereo not given)	> 100 µM	> 100 µM	> 100 µM	> 100 µM	> 100 µM	> 100 µM	> 100 µM	> 100 µM	> 100 µM	> 100 µM	–	–	–	–	–	–	–	–	–	–
CCOP(=O)(OCC)/C(C#N)=C/c1cccn1N(C)C	> 100 µM	96.3 µM	> 100 µM	> 100 µM	> 100 µM	> 100 µM	> 100 µM	> 100 µM	> 100 µM	> 100 µM	–	–	–	–	–	–	–	–	–	–
O=C1CC(c2ccc[nH]2)=NN1c1ccccc1	> 100 µM	> 100 µM	85.5 µM	> 100 µM	> 100 µM	> 100 µM	> 100 µM	> 100 µM	> 100 µM	> 100 µM	–	–	–	–	–	–	–	–	–	–
CC(C)NC(=O)OCc1c(COC(=O)NC(C)C)c(-c2ccc[n+](COC(=O)C3CC3)c2)n2c1CCC2	> 100 µM	> 100 µM	> 100 µM	> 100 µM	> 100 µM	> 100 µM	> 100 µM	> 100 µM	> 100 µM	> 100 µM	–	–	–	–	–	–	–	–	–	–
CCN(CC)CCSc1nc2c(c(=N)n1-c1ccccc1)c(=S)n(-c1ccccc1)c(=S)n2-c1ccccc1	3.34 µM	9.03 µM	2.33 µM	3.86 µM	0.446 µM	> 21.4 µM	3.16 µM	3.18 µM	29 µM	50.4 µM	–	–	–	–	–	–	–	–	–	–
COC(=O)c1ccc(CCc2cc(O)c(Br)cc2O)cc1	27.2 µM	51.1 µM	6.65 µM	33.3 µM	5.78 µM	30.5 µM	27.1 µM	32.4 µM	33.8 µM	55.1 µM	–	–	–	–	–	–	–	–	–	–
COc1cc(C(=O)Nc2c3ccccc3nc3ccccc23)cc(OC)c1OC	> 100 µM	> 100 µM	> 100 µM	> 100 µM	> 100 µM	> 100 µM	> 100 µM	> 100 µM	> 100 µM	> 100 µM	–	–	–	–	–	–	–	–	–	–
